# Measurements: patent US8952024B2, “Herbicidal pyrimidone derivatives” (E I du Pont de Nemours and Company, priority 2009, dated 2015)
# Assays:
# Format in all cases: in vivo
# [1] = test system: giant foxtail (Setaria faberii); assay: Test B pre-/postemergence plant response; conditions: for Foxtail, Giant plant response rating (0 to 100 scale): 0 is no effect
# How it was run: (§1)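 Seeds were sown in loam soil/sand blend and treated preemergence with compound in non-phytotoxic solvent mixture containing surfactant; postemergence sprays, same formulation, went onto plants 2 to 18 cm (1- to 4-leaf stage) in peat-based planting medium. Greenhouse 13 to 15 days, then visual rating versus untreated controls, 0 (no effect) to 100 (complete control).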
# [2] = test system: green foxtail (Setaria viridis); assay: Test B pre-/postemergence plant response; conditions: for Foxtail, Green plant response rating (0 to 100 scale): 0 is no effect
# How it was run: as §1
# [3] = test system: cocklebur (Xanthium strumarium); assay: Test B pre-/postemergence plant response; conditions: for Cocklebur plant response rating (0 to 100 scale): 0 is no effect
# How it was run: as §1
# [4] = test system: velvetleaf (Abutilon theophrasti); assay: Test A pre-/postemergence plant response
# How it was run: (§2)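 Visual injury rating on a 0–100 scale (0 = no effect, 100 = complete control) was made versus untreated controls after about ten days in the greenhouse. Compounds, formulated in a non-phytotoxic solvent mix containing surfactant, were sprayed preemergence onto loam/sand soil and postemergence onto one- to two-leaf plants.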
# [5] = test system: large crabgrass (Digitaria sanguinalis); assay: Test A pre-/postemergence plant response
# How it was run: as §2
# [6] = test system: giant foxtail (Setaria faberii); assay: Test A pre-/postemergence plant response
# How it was run: as §2
# [7] = test system: morningglory (Ipomoea spp.); assay: Test A pre-/postemergence plant response
# How it was run: as §2
# [8] = test system: wheat (Triticum aestivum); assay: Test A pre-/postemergence plant response
# How it was run: as §2
# corn (Zea mays) = assay: Test A pre-/postemergence plant response
# How it was run: as §2
# [9] = test system: barnyardgrass (Echinochloa crus-galli); assay: Test A pre-/postemergence plant response
# How it was run: as §2
# [10] = test system: pigweed (Amaranthus retroflexus); assay: Test A pre-/postemergence plant response
# How it was run: as §2
# [11] = 250 g ai/ha, Preemergence, 0 to 100 scale
# [12] = Postemergence, 31 g ai/ha, scale 0 to 100 (0 no effect, 100 complete control)
# [13] = Postemergence, 62 g ai/ha, scale 0 (no effect) to 100 (complete control), 13 to 15 days
# [14] = Postemergence, 125 g ai/ha, visual rating after 13 to 15 days, scale 0 (no effect) to 100 (complete control)
# [15] = Postemergence, 250 g ai/ha, scale 0 to 100
# [16] = Preemergence, 31 g ai/ha, scale 0 to 100 (0 no effect, 100 complete control)
# [17] = Preemergence, 62 g ai/ha, scale 0 to 100, 0 no effect, 100 complete control
# [18] = Preemergence, 125 g ai/ha, 0 to 100 scale
# [19] = Postemergence, 125 g ai/ha, visual injury, 0 to 100 scale (0 no effect, 100 complete control), approx. ten days
# [20] = Postemergence, 500 g ai/ha, 0 to 100 scale, 0 = no effect, 100 = complete control, approx. ten days
# [21] = Preemergence, 125 g ai/ha, 0 to 100 scale, 0 = no effect, 100 = complete control
# [22] = Preemergence, 500 g ai/ha, visual injury, 0 to 100 scale (0 no effect, 100 complete control), approx. ten days
# [23] = 31 g ai/ha, postemergence, scale 0 to 100, 0 is no effect, 100 is complete control
# [24] = 62 g ai/ha, postemergence, 100 is complete control, 13 to 15 days
# [25] = Postemergence, 250 g ai/ha, scale 0 to 100 (0 no effect, 100 complete control)
# [26] = Postemergence, 125 g ai/ha, 0 to 100 scale where 0 is no effect and 100 is complete control
# [27] = Postemergence, 31 g ai/ha, 0 to 100 scale (0 no effect, 100 complete control)
# [28] = Postemergence, 125 g ai/ha, scale 0 to 100 (0 no effect, 100 complete control)
# [29] = Postemergence, 250 g ai/ha, scale 0 to 100 (0 no effect, 100 complete control), 13 to 15 days
structure (smiles),measurement,setting,value
O=C1CCCC([O-])=C1C(=O)c1cnc(-c2ccccc2)n(-c2ccccc2)c1=O.[K+] [Compound 14],"Plant response rating, Foxtail, Giant",[1]; [11],90
same,"Plant response rating, Foxtail, Giant",[1]; [12],50
same,"Plant response rating, Foxtail, Giant",[1]; [13],70
same,"Plant response rating, Foxtail, Giant",[1]; [14],80
same,"Foxtail, Giant plant response rating",[1]; [15],95
same,"Plant response rating, Foxtail, Giant",[1]; [16],0
same,"Plant response rating, Foxtail, Giant",[1]; [17],10
same,"Foxtail, Giant plant response rating",[1]; [18],75
same,"Plant response rating, Foxtail, Green",[2]; [11],60
same,"Plant response rating, Foxtail, Green",[2]; [12],45
same,"Plant response rating, Foxtail, Green",[2]; [13],45
same,"Plant response rating, Foxtail, Green",[2]; [14],50
same,"Foxtail, Green plant response rating",[2]; [15],85
same,"Plant response rating, Foxtail, Green",[2]; [16],0
same,"Plant response rating, Foxtail, Green",[2]; [17],0
same,"Foxtail, Green plant response rating",[2]; [18],10
same,"Plant response rating, Cocklebur",[3]; [11],95
same,"Plant response rating, Cocklebur",[3]; [12],80
same,"Plant response rating, Cocklebur",[3]; [13],90
same,"Plant response rating, Cocklebur",[3]; [14],90
same,Cocklebur plant response rating,[3]; [15],98
same,"Plant response rating, Cocklebur",[3]; [16],0
same,"Plant response rating, Cocklebur",[3]; [17],85
same,Cocklebur plant response rating,[3]; [18],85
same,Velvetleaf plant response rating,[4]; [19],100
same,"Plant response rating, Velvetleaf",[4]; [20],100
same,"Plant response rating, Velvetleaf",[4]; [21],90
same,"Plant response rating, Velvetleaf",[4]; [22],100
same,"Crabgrass, Large plant response rating",[5]; [19],30
same,"Plant response rating, Crabgrass, Large",[5]; [20],90
same,"Plant response rating, Crabgrass, Large",[5]; [21],30
same,"Plant response rating, Crabgrass, Large",[5]; [22],90
same,"Foxtail, Giant plant response rating",[6]; [19],30
same,"Plant response rating, Foxtail, Giant",[6]; [20],90
same,"Plant response rating, Foxtail, Giant",[6]; [21],40
same,"Plant response rating, Foxtail, Giant",[6]; [22],90
same,Morningglory plant response rating,[7]; [19],20
same,"Plant response rating, Morningglory",[7]; [20],100
same,"Plant response rating, Morningglory",[7]; [21],10
same,"Plant response rating, Morningglory",[7]; [22],60
same,Wheat plant response rating,[8]; [19],0
same,"Plant response rating, Wheat",[8]; [20],0
same,"Plant response rating, Wheat",[8]; [21],0
same,"Plant response rating, Wheat",[8]; [22],0
same,Corn plant response rating,corn (Zea mays); [19],0
same,"Plant response rating, Corn",corn (Zea mays); [20],20
same,"Plant response rating, Corn",corn (Zea mays); [21],0
same,"Plant response rating, Corn",corn (Zea mays); [22],0
same,Barnyardgrass plant response rating,[9]; [19],30
same,"Plant response rating, Barnyardgrass",[9]; [20],80
same,"Plant response rating, Barnyardgrass",[9]; [21],10
same,"Plant response rating, Barnyardgrass",[9]; [22],70
same,Pigweed plant response rating,[10]; [19],80
same,"Plant response rating, Pigweed",[10]; [20],100
same,"Plant response rating, Pigweed",[10]; [21],100
same,"Plant response rating, Pigweed",[10]; [22],100
CCOCCn1c(-c2ccccc2)ncc(C(=O)C2=C(O)CCCC2=O)c1=O [Compound 96],"Plant response rating, Foxtail, Giant",[1]; [23],65
same,"Foxtail, Giant plant response rating (0 to 100 scale)",[1]; [24],70
same,"Plant response rating, Foxtail, Giant",[1]; [25],85
same,"Plant response rating, Foxtail, Green",[2]; [23],50
same,"Foxtail, Green plant response rating (0 to 100 scale)",[2]; [24],65
same,"Plant response rating, Foxtail, Green",[2]; [25],85
same,"Plant response rating, Cocklebur",[3]; [23],75
same,Cocklebur plant response rating (0 to 100 scale),[3]; [24],95
same,"Plant response rating, Cocklebur",[3]; [14],98
same,"Plant response rating, Cocklebur",[3]; [25],100
same,"Plant response rating, Velvetleaf",[4]; [26],100
same,"Plant response rating, Velvetleaf",[4]; [20],100
same,"Plant response rating, Velvetleaf",[4]; [21],100
same,"Plant response rating, Velvetleaf",[4]; [22],100
same,"Plant response rating, Crabgrass, Large",[5]; [26],90
same,"Plant response rating, Crabgrass, Large",[5]; [20],100
same,"Plant response rating, Crabgrass, Large",[5]; [21],100
same,"Plant response rating, Crabgrass, Large",[5]; [22],100
same,"Plant response rating, Foxtail, Giant",[6]; [26],70
same,"Plant response rating, Foxtail, Giant",[6]; [20],90
same,"Plant response rating, Foxtail, Giant",[6]; [21],50
same,"Plant response rating, Foxtail, Giant",[6]; [22],80
same,"Plant response rating, Morningglory",[7]; [26],100
same,"Plant response rating, Morningglory",[7]; [20],100
same,"Plant response rating, Morningglory",[7]; [21],80
same,"Plant response rating, Morningglory",[7]; [22],80
same,"Plant response rating, Wheat",[8]; [26],0
same,"Plant response rating, Wheat",[8]; [20],20
same,"Plant response rating, Wheat",[8]; [21],0
same,"Plant response rating, Wheat",[8]; [22],0
same,"Plant response rating, Corn",corn (Zea mays); [26],0
same,"Plant response rating, Corn",corn (Zea mays); [20],20
same,"Plant response rating, Corn",corn (Zea mays); [21],0
same,"Plant response rating, Corn",corn (Zea mays); [22],10
same,"Plant response rating, Barnyardgrass",[9]; [26],90
same,"Plant response rating, Barnyardgrass",[9]; [20],90
same,"Plant response rating, Barnyardgrass",[9]; [21],90
same,"Plant response rating, Barnyardgrass",[9]; [22],100
same,"Plant response rating, Pigweed",[10]; [26],100
same,"Plant response rating, Pigweed",[10]; [20],100
same,"Plant response rating, Pigweed",[10]; [21],100
same,"Plant response rating, Pigweed",[10]; [22],100
O=C1CCCC(O)=C1C(=O)c1cnc(-c2ccccc2)n(C2CCOCC2)c1=O [Compound 129],"Foxtail, Giant plant response rating (0 to 100 scale)",[1]; [24],85
same,"Plant response rating, Foxtail, Giant",[1]; [27],70
same,"Plant response rating, Foxtail, Giant",[1]; [28],90
same,"Plant response rating, Foxtail, Giant",[1]; [29],98
same,"Foxtail, Green plant response rating (0 to 100 scale)",[2]; [24],90
same,"Plant response rating, Foxtail, Green",[2]; [27],80
same,"Plant response rating, Foxtail, Green",[2]; [28],90
same,"Plant response rating, Foxtail, Green",[2]; [29],95
same,Cocklebur plant response rating (0 to 100 scale),[3]; [24],98
same,"Plant response rating, Cocklebur",[3]; [27],95
same,"Plant response rating, Cocklebur",[3]; [28],98
same,"Plant response rating, Cocklebur",[3]; [29],100
same,"Plant response rating, Velvetleaf",[4]; [26],100
same,"Plant response rating, Velvetleaf",[4]; [20],100
same,"Plant response rating, Velvetleaf",[4]; [21],80
same,"Plant response rating, Velvetleaf",[4]; [22],90
same,"Plant response rating, Crabgrass, Large",[5]; [26],90
same,"Plant response rating, Crabgrass, Large",[5]; [20],90
same,"Plant response rating, Crabgrass, Large",[5]; [21],70
same,"Plant response rating, Crabgrass, Large",[5]; [22],90
same,"Plant response rating, Foxtail, Giant",[6]; [26],90
same,"Plant response rating, Foxtail, Giant",[6]; [20],90
same,"Plant response rating, Foxtail, Giant",[6]; [21],40
same,"Plant response rating, Foxtail, Giant",[6]; [22],80
same,"Plant response rating, Morningglory",[7]; [26],100
same,"Plant response rating, Morningglory",[7]; [20],100
same,"Plant response rating, Morningglory",[7]; [22],90
same,"Plant response rating, Wheat",[8]; [26],0
same,"Plant response rating, Wheat",[8]; [20],20
same,"Plant response rating, Wheat",[8]; [21],0
same,"Plant response rating, Wheat",[8]; [22],0
same,"Plant response rating, Corn",corn (Zea mays); [26],20
same,"Plant response rating, Corn",corn (Zea mays); [20],50
same,"Plant response rating, Corn",corn (Zea mays); [21],0
same,"Plant response rating, Corn",corn (Zea mays); [22],0
same,"Plant response rating, Barnyardgrass",[9]; [26],90
same,"Plant response rating, Barnyardgrass",[9]; [20],100
same,"Plant response rating, Barnyardgrass",[9]; [21],30
same,"Plant response rating, Barnyardgrass",[9]; [22],100
same,"Plant response rating, Pigweed",[10]; [26],100
same,"Plant response rating, Pigweed",[10]; [20],100
same,"Plant response rating, Pigweed",[10]; [21],100
same,"Plant response rating, Pigweed",[10]; [22],100
